Measured values as given in patent publication US20250243196A1, “CITRON KINASE INHIBITORS” (The Cleveland Clinic Foundation, priority 2021, published 2025).

Legend:
Assay type in all cases: biochemical
AAK1 = AAK1 (Homo sapiens (Human), UniProt Q2M2I8); assay: KinaseProfiler radiometric assay (16-043KP); details: mean of at least two independent experiments
Excerpt: In another aspect, disclosed is a method of inhibiting citron kinase in a sample, comprising contacting the sample with a compound described herein (e.g., a compound of formula (I) or a pharmaceutically acceptable salt thereof), or a pharmaceutical composition described herein (e.g., a pharmaceutical composition comprising a compound of formula (I) or a pharmaceutically acceptable salt thereof), in an amount effective to inhibit citron kinase. In some embodiments, the step of contacting the sample with the compound comprises administering the compound to a subject (e.g., a subject) suffering from cancer. Methods of determining kinase inhibition are well known in the art. For example, kinase activity of an enzyme and the inhibitory capacity of a test compound can be determined by measuring enzyme specific phosphorylation of a substrate. Commercial assays and kits can be employed. For example, kinase inhibition can be determined using a radiometric binding assay, such as using KinaseProfiler™ technology (Eurofins Discovery). This assay method directly detects product formation without the use of modified substrates or coupling enzymes. […]
The effect of various compounds on the inhibition of other kinases has also been determined. Table 2 reports measured IC50 values; value units are nanomolar inhibition.

Arg(h) = Arg(h) (Homo sapiens (Human), UniProt P42684); assay: KinaseProfiler panel; parameters: dose or concentration left out as unconfirmed; details: activity remaining
CDKL1(h) = CDKL1(h) (Homo sapiens (Human), UniProt Q00532); assay: KinaseProfiler panel; parameters: dose or concentration left out as unconfirmed; details: activity remaining
CHK2(h) = CHK2(h) (Homo sapiens (Human), UniProt O96017); assay: KinaseProfiler panel; parameters: dose or concentration left out as unconfirmed; details: activity remaining
CK1γ1(h) = CK1γ1(h) (Homo sapiens (Human), UniProt Q9HCP0); assay: KinaseProfiler panel; parameters: dose or concentration left out as unconfirmed; details: activity remaining
CK1γ1(h), sequence (Q9HCP0 whole entry): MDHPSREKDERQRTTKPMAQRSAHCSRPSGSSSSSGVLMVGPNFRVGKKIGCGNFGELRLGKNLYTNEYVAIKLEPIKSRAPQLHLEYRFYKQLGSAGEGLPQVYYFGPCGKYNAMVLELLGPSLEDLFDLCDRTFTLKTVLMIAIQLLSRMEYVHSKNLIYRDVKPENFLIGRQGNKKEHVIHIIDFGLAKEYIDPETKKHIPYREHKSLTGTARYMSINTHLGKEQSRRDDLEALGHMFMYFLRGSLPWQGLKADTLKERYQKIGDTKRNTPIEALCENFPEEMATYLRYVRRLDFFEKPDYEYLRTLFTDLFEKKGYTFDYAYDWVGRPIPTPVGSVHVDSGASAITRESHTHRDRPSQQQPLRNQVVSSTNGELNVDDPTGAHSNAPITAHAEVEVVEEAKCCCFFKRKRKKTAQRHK

DCAMKL3(h) = DCAMKL3(h) (Homo sapiens (Human), UniProt Q9C098); assay: KinaseProfiler panel; parameters: dose or concentration left out as unconfirmed; details: activity remaining
Flt1(h) = Flt1(h) (Homo sapiens (Human), UniProt P17948); assay: KinaseProfiler panel; parameters: dose or concentration left out as unconfirmed; details: activity remaining
Flt1(h), sequence (P17948 27-1338): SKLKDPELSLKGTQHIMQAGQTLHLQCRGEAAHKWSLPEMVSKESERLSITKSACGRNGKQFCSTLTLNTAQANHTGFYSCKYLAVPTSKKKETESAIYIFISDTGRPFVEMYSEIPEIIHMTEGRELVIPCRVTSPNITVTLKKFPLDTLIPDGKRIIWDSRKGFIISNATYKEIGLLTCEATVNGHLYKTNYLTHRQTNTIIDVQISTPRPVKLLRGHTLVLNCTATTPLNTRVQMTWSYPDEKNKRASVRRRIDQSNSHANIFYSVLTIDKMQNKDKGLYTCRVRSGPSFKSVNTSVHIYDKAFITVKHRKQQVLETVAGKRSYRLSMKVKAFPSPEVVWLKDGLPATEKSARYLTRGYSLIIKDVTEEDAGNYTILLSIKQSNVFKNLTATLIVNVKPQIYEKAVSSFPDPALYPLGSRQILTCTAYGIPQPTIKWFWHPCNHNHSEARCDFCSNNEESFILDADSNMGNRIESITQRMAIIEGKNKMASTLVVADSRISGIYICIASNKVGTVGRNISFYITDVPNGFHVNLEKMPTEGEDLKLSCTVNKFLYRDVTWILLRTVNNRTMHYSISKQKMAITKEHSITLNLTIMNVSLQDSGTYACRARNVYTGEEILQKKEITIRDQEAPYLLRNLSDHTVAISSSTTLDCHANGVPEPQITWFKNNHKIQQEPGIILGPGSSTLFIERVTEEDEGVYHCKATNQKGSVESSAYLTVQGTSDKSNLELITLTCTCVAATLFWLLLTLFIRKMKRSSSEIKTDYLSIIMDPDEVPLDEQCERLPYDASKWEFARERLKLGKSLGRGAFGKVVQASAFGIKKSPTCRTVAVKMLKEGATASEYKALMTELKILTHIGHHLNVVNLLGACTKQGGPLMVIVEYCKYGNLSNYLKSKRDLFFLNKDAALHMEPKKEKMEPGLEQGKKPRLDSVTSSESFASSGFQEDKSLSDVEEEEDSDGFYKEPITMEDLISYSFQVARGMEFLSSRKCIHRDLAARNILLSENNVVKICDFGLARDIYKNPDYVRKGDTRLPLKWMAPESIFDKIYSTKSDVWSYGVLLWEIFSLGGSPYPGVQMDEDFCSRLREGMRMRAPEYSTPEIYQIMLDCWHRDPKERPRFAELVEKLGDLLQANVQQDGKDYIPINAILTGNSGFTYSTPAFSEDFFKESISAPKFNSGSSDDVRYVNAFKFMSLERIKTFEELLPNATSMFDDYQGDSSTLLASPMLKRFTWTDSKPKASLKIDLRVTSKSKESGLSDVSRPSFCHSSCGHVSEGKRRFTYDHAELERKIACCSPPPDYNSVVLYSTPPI

GRK2(h) = GRK2(h) (Homo sapiens (Human), UniProt P25098); assay: KinaseProfiler panel; parameters: dose or concentration left out as unconfirmed; details: activity remaining
GRK5(h) = GRK5(h) (Homo sapiens (Human), UniProt P34947); assay: KinaseProfiler panel; parameters: dose or concentration left out as unconfirmed; details: activity remaining
HIPK3(h) = HIPK3(h) (Homo sapiens (Human), UniProt Q9H422); assay: KinaseProfiler panel; parameters: dose or concentration left out as unconfirmed; details: activity remaining
HIPK3(h), sequence (Q9H422 whole entry): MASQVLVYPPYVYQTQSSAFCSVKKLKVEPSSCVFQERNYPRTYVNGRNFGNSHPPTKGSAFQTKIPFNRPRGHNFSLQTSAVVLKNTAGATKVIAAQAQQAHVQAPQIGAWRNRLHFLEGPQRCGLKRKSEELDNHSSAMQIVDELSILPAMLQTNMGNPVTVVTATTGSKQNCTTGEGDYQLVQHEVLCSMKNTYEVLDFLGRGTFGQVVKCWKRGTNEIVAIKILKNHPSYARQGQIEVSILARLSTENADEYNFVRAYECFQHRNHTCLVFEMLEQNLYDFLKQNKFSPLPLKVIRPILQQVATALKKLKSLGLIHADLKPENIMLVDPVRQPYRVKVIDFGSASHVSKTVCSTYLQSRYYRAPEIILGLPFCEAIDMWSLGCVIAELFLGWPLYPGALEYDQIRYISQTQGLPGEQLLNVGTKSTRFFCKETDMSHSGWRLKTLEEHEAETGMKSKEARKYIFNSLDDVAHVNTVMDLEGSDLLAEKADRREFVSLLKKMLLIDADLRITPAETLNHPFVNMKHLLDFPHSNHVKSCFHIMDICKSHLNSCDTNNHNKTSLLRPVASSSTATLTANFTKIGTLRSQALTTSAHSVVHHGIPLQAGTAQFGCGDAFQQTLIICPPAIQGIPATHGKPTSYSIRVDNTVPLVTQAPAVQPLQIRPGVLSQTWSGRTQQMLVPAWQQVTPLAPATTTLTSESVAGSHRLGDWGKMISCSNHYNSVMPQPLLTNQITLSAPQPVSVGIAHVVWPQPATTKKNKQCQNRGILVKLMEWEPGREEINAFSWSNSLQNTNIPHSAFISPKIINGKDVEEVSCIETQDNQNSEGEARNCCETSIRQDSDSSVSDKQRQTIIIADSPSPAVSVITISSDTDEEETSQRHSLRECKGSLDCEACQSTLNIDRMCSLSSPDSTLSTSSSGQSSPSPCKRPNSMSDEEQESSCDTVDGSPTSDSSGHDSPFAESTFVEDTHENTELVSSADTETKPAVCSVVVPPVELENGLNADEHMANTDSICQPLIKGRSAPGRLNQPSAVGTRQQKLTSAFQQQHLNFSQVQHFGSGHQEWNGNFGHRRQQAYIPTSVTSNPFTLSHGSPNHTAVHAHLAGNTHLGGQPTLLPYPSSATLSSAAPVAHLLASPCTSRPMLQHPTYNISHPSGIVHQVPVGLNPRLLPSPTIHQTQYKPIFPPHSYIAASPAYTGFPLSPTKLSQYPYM

HRI(h) = HRI(h) (Homo sapiens (Human), UniProt Q9BQI3); assay: KinaseProfiler panel; parameters: dose or concentration left out as unconfirmed; details: activity remaining
IRR(h) = IRR(h) (Homo sapiens (Human), UniProt P14616); assay: KinaseProfiler panel; parameters: dose or concentration left out as unconfirmed; details: activity remaining
JAK3(h) = JAK3(h) (Homo sapiens (Human), UniProt P52333); assay: KinaseProfiler panel; parameters: dose or concentration left out as unconfirmed; details: activity remaining
Lck(h) activated = Lck(h) activated (Homo sapiens (Human), UniProt P06239); assay: KinaseProfiler panel; parameters: dose or concentration left out as unconfirmed; details: activity remaining
Lyn(h) = Lyn(h) (Homo sapiens (Human), UniProt P07948); assay: KinaseProfiler panel; parameters: dose or concentration left out as unconfirmed; details: activity remaining
Lyn(h), sequence (P07948 whole entry): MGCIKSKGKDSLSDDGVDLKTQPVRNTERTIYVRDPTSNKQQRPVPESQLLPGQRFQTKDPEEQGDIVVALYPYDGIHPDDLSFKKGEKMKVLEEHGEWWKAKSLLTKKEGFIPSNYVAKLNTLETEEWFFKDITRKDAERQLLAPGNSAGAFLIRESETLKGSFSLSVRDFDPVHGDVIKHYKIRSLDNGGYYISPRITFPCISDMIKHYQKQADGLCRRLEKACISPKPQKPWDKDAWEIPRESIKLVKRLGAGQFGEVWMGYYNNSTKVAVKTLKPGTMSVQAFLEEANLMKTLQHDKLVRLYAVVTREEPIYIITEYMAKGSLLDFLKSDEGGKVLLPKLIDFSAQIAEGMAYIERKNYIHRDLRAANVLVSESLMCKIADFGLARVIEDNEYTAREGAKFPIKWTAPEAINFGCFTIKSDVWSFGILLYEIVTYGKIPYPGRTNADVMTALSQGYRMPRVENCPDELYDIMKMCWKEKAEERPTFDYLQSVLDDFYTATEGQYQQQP

MAK(h) = MAK(h) (Homo sapiens (Human), UniProt P20794); assay: KinaseProfiler panel; parameters: dose or concentration left out as unconfirmed; details: activity remaining
MAP4K3(h) = MAP4K3(h) (Homo sapiens (Human), UniProt Q8IVH8); assay: KinaseProfiler panel; parameters: dose or concentration left out as unconfirmed; details: activity remaining
MEK1(h) = MEK1(h) (Homo sapiens (Human), UniProt Q02750); assay: KinaseProfiler panel; parameters: dose or concentration left out as unconfirmed; details: activity remaining
MINK(h) = MINK(h) (Homo sapiens (Human), UniProt Q8N4C8); assay: KinaseProfiler panel; parameters: dose or concentration left out as unconfirmed; details: activity remaining
PAK6(h) = PAK6(h) (Homo sapiens (Human), UniProt Q9NQU5); assay: KinaseProfiler panel; parameters: dose or concentration left out as unconfirmed; details: activity remaining
PKBβ(h) = PKBβ(h) (Homo sapiens (Human), UniProt P31751); assay: KinaseProfiler panel; parameters: dose or concentration left out as unconfirmed; details: activity remaining
PKBβ(h), sequence (P31751 whole entry): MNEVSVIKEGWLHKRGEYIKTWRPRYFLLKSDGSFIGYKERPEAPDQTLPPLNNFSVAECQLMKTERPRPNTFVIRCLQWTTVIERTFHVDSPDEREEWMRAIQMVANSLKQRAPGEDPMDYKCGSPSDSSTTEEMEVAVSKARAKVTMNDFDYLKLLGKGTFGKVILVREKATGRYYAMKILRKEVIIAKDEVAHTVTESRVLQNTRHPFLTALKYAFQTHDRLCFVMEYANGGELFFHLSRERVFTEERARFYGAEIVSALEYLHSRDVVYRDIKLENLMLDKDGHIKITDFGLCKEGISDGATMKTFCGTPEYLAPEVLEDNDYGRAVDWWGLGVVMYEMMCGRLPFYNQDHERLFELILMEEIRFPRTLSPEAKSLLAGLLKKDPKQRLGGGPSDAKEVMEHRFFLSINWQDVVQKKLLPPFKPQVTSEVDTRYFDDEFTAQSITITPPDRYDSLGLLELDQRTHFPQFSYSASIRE

Ron(h) = Ron(h) (Homo sapiens (Human), UniProt Q04912); assay: KinaseProfiler panel; parameters: dose or concentration left out as unconfirmed; details: activity remaining
STK16(h) = STK16(h) (Homo sapiens (Human), UniProt O75716); assay: KinaseProfiler panel; parameters: dose or concentration left out as unconfirmed; details: activity remaining
STK32B(h) = STK32B(h) (Homo sapiens (Human), UniProt Q9NY57); assay: KinaseProfiler panel; parameters: dose or concentration left out as unconfirmed; details: activity remaining
STK39(h) = STK39(h) (Homo sapiens (Human), UniProt Q9UEW8); assay: KinaseProfiler panel; details: activity remaining
TRB2(h) = TRB2(h) (Homo sapiens (Human), UniProt Q92519); assay: KinaseProfiler panel; parameters: dose or concentration left out as unconfirmed; details: activity remaining

AAK1, sequence (Q2M2I8 whole entry): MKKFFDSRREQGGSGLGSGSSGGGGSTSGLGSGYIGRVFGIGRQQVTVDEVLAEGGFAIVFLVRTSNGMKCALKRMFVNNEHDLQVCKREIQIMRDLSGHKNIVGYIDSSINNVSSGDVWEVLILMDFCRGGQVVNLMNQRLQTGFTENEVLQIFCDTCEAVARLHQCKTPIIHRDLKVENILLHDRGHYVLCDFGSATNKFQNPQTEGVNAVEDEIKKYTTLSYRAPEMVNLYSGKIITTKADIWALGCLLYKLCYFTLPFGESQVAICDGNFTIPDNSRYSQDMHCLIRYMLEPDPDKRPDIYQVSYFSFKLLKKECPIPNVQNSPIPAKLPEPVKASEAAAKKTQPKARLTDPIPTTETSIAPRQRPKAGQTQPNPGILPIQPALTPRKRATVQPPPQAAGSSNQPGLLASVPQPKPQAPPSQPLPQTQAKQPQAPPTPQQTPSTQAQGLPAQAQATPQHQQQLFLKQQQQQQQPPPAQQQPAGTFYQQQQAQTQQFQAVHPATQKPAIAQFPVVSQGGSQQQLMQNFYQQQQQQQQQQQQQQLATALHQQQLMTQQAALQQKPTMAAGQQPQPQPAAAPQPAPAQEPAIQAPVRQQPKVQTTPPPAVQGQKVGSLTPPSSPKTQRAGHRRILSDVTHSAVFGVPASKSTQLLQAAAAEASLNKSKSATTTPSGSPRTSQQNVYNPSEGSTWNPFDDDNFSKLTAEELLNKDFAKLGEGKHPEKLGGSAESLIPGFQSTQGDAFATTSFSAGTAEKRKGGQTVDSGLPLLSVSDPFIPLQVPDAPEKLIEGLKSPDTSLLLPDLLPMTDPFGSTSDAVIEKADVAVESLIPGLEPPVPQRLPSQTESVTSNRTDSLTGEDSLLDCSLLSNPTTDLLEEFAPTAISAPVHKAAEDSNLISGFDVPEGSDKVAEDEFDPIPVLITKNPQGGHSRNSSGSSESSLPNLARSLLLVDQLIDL

Compound: Cc1cc2c(-c3ccc(NC(=O)[C@H](N)CC(C)(C)C)cc3C)ccnc2[nH]1 [Compound F-90, (2R)-2-Amino-4,4-dimethyl-N-[3-methyl-4-(2-methyl-1H-pyrrolo[2,3-b]pyridin-4-yl)phenyl]pentanamide]
- IC50 (AAK1): 212 nM
- % Activity (Arg(h)): 72%
- % Activity (CDKL1(h)): 99%
- % Activity (CHK2(h)): 95%
- % Activity (CK1γ1(h)): 101%
- % Activity (DCAMKL3(h)): 86%
- % Activity (Flt1(h)): 125%
- % Activity (GRK2(h)): 95%
- % Activity (GRK5(h)): 97%
- % Activity (HIPK3(h)): 85%
- % Activity (HRI(h)): 80%
- % Activity (IRR(h)): 110%
- % Activity (JAK3(h)): 106%
- % Activity (Lck(h) activated): 119%
- % Activity (Lyn(h)): 80%
- % Activity (MAK(h)): 120%
- % Activity (MAP4K3(h)): 109%
- % Activity (MEK1(h)): 101%
- % Activity (MINK(h)): 89%
- % Activity (PAK6(h)): 101%
- % Activity (PKBβ(h)): 109%
- % Activity (Ron(h)): 111%
- % Activity (STK16(h)): 94%
- % Activity (STK32B(h)): 115%
- % Activity (STK39(h)): 102%
- % Activity (TRB2(h)): 104%
